Like-named read-outs stand apart in the source and are kept apart here.
What was measured:
[1] = system: SARS-CoV-2-NLuc; assay: microbe, parasite or virus in culture; assay type: cell-based, SARS Coronavirus 2
[2] = target: recombinant SARS-CoV-2 Main protease (Mpro) (Severe acute respiratory syndrome coronavirus 2 (2019-nCoV) (SARS-CoV-2), UniProt P0DTD1); assay: Cov Mpro Biochemical IC50 Assay; conditions: read-out: MPro IC50
[3] = Severe acute respiratory syndrome coronavirus, 48 h; read-out: MPro EC50
[4] = recombinant SARS-CoV-2 Mpro 7.5 nM, fluorogenic peptide substrate 40 μM
[5] = Severe acute respiratory syndrome coronavirus, 48 h, read-out: MPro EC50
[6] = recombinant SARS-CoV-2 Mpro, fluorogenic peptide substrate

| SMILES | EC50 [1, 3] [µM] | IC50 [2, 4] [µM] | EC50 [1, 5] [µM] | IC50 [2, 6] [µM] | EC50 ([1]; read-out: MPro EC50) [µM] |
| --- | --- | --- | --- | --- | --- |
| COc1cc(-c2cc3c(s2)c(=O)n(-c2cncc(C#CC(C)(C)O)c2)c(=O)n3CCC#N)c(Cl)cc1F [Example 1038, 3-(6-(2-chloro-4-fluoro-5-methoxyphenyl)-3-(5-(3-hydroxy-3-methylbut-1-yn-1-yl)pyridin-3-yl)-2,4-dioxo-3,4-dihydrothieno[3,2-d]pyrimidin-1(2H)-yl)propanenitrile] | 0.00569 | 0.00128 |  |  |  |
| Cn1ccc(-c2cccc(Cl)c2-c2ccc3c(=O)n(-c4cncc5ccccc45)c(=O)[nH]c3c2)n1 [Example 146] |  |  | 0.0606 | 0.0997 |  |
| O=c1[nH]c2cc(-c3ccccc3Cl)sc2c(=O)n1-c1cncc2c(Cl)cccc12 [Example 592] |  | > 50 | 39.5 |  |  |
| COc1cc(-c2cc3[nH]c(=O)n(-c4cncc5ccc(=O)n(C)c45)c(=O)c3s2)c(Cl)cc1F [Example 712] |  | 0.00685 | 0.0124 |  |  |
| N#Cc1cccc(-c2cccc(Cl)c2-c2ccc3c(=O)n(-c4cncc5ccccc45)c(=O)[nH]c3c2)n1 [Example 276] |  |  | 0.219 | 0.23 |  |
| Cc1ccc(-c2cc3c(s2)c(=O)n(-c2cncc4cnn(C)c24)c(=O)n3CCC#N)c(C#N)c1 [Example 840] |  | 0.0168 | 0.0433 |  |  |
| COc1cc(-c2cc3[nH]c(=O)n(-c4cncc5c4CCCC5)c(=O)c3s2)c(Cl)cc1F [Example 729] | 0.00778 | 0.0061 |  |  |  |
| COc1cc(-c2cc3[nH]c(=O)n(-c4cncc5c4OCCC5)c(=O)c3s2)c(Cl)cc1F [Example 1079] |  | 0.0103 | 0.00956 |  |  |
| COc1cc(-c2cc3c(s2)c(=O)n(-c2cncc4cnn(C)c24)c(=O)n3CC#N)c(Cl)cc1F (single isomer, unassigned) [Example 1013, 2-[6-(2-chloro-4-fluoro-5-methoxy-phenyl)-3-(1-methylpyrazolo[4,3-c]pyridin-7-yl)-2,4-dioxo-thieno[3,2-d]pyrimidin-1-yl]acetonitrile] |  | 0.00142 |  |  | 0.0165 |
| CC(=O)NC1CCN(c2ccc3cncc(-n4c(=O)[nH]c5cc(-c6ccccc6Cl)sc5c4=O)c3c2)CC1 [Example 388] |  |  | 0.212 | 0.0187 |  |
| O=c1[nH]c2cc(-c3ccccc3Cl)cnc2c(=O)n1-c1cncc2ccccc12 [Example 30] |  |  | 0.38 | 0.0176 |  |
| O=c1[nH]c2cc(-c3c(Cl)cccc3CO)sc2c(=O)n1-c1cncc2ccccc12 [Example 235] | 0.289 |  |  | 0.0535 |  |
| CCOc1cc(-c2cc(OC)c(F)cc2Cl)cc2[nH]c(=O)n(-c3cncc4ccccc34)c(=O)c12 [Example 676] |  | 0.0316 | 0.0253 |  |  |
| O=c1[nH]c2cc(-c3ccccc3Cl)sc2c(=O)n1-c1cncc2c1CCC2 [Example 107] |  |  | 0.0717 | 0.0318 |  |
| COc1cc(-c2cc3c(s2)c(=O)n(-c2cncc4ccccc24)c(=O)n3Cc2ncn(C)n2)c(Cl)cc1F [Example 689] |  | 0.032 | 0.03 |  |  |
| COc1cc(-c2cc3[nH]c(=O)n(-c4cncc5ccccc45)c(=O)c3s2)c(Cl)cc1F (single isomer, unassigned) [Example 557, 6-(2-chloro-4-fluoro-5-methoxyphenyl)-3-(isoquinolin-4-yl)thieno[3,2-d]pyrimidine-2,4(1H,3H)-dione] |  | 0.103 |  |  | 0.0654 |
| O=c1[nH]c2cc(-c3cccc(Cl)c3Cl)ccc2c(=O)n1-c1cncc2ccccc12 [Example 59] |  |  | 6.01 | > 100 |  |

| SMILES | EC50 [1, 3] [µM] | IC50 [2, 4] [µM] | EC50 [1, 5] [µM] | IC50 [2, 6] [µM] | EC50 ([1]; read-out: MPro EC50) [µM] |
| --- | --- | --- | --- | --- | --- |
| Cc1cn(C)nc1-c1cccc(Cl)c1-c1ccc2c(=O)n(-c3cncc4ccccc34)c(=O)[nH]c2c1 [Example 258] |  |  | 0.0759 | 0.0613 |  |
| COc1cc(-c2cc3c(s2)c(=O)n(-c2cncc4c2c(C)nn4CC(F)(F)F)c(=O)n3CCC#N)c(Cl)cc1F [Example 919] |  | 0.926 | 0.366 |  |  |
| N#CCCn1c(=O)n(-c2cnccn2)c(=O)c2sc(-c3ccccc3C#N)cc21 [Example 830] | > 1 | 0.35 |  |  |  |
| N#Cc1cc(F)c(F)cc1-c1cc2[nH]c(=O)n(-c3cncc4ccccc34)c(=O)c2s1 [Example 540] |  | 0.911 | > 50 |  |  |
| COc1cc(-c2cc3c(s2)c(=O)n(-c2cncc(C#CC(C)(C)S(C)(=O)=O)c2)c(=O)n3CCC#N)c(Cl)cc1F [Example 1039] |  | 0.0117 | 0.0571 |  |  |
| Cc1cc(-c2cccc(Cl)c2-c2cc3[nH]c(=O)n(-c4cncc5ccccc45)c(=O)c3s2)cnn1 [Example 111, 6-(2-chloro-6-(6-methylpyridazin-4-yl)phenyl)-3-(isoquinolin-4-yl)thieno[3,2-d]pyrimidine-2,4(1H,3H)-dione] | 0.0789 |  |  | 0.00688 |  |
| COc1cc(-c2cc3c(s2)c(=O)n(-c2cncc4nnn(C)c24)c(=O)n3CCC#N)c(Cl)cc1F (single isomer, unassigned) [Example 1059, 3-(6-(2-chloro-4-fluoro-5-methoxyphenyl)-3-(1-methyl-1H-[1,2,3]triazolo[4,5-c]pyridin-7-yl)-2,4-dioxo-3,4-dihydrothieno[3,2-d]pyrimidin-1(2H)-yl)propanenitrile] |  | 0.0447 |  |  | 0.101 |
| O=c1[nH]c2cc(-c3ccccc3Cl)sc2c(=O)n1-c1cncc2ccc(N3CCOCC3)cc12 [Example 385, 6-(2-chlorophenyl)-3-(6-morpholinoisoquinolin-4-yl)thieno[3,2-d]pyrimidine-2,4(1H,3H)-dione] |  |  | 0.014 | 0.00551 |  |
| COc1cc(-c2cc3[nH]c(=O)n(-c4cncc5cnn(C)c45)c(=O)c3cc2OC)c(C#N)cc1F [Example 765] |  | 0.0139 | 0.0942 |  |  |
| COc1cc(-c2cc3c(s2)c(=O)n(-c2cncc4nc(C5CC5)n(C)c24)c(=O)n3CCC#N)c(Cl)cc1F [Example 992] |  | 0.0183 | 0.112 |  |  |
| O=c1[nH]c2cc(-c3c(Cl)cccc3CC3CCOCC3)sc2c(=O)n1-c1cncc2ccccc12 [Example 561, 6-[2-chloro-6-(tetrahydropyran-4-ylmethyl)phenyl]-3-(4-isoquinolyl)-1H-thieno[3,2-d]pyrimidine-2,4-dione] |  | 0.142 | 0.177 |  |  |
| COc1cnc(Cl)c(-c2cc3c(s2)c(=O)n(-c2cncc4ccccc24)c(=O)n3CCC#N)c1 (single isomer, unassigned) [Example 1089, 3-(6-(2-chloro-5-methoxypyridin-3-yl)-3-(isoquinolin-4-yl)-2,4-dioxo-3,4-dihydrothieno[3,2-d]pyrimidin-1(2H)-yl)propanenitrile] |  | > 1 |  |  | > 1 |
| O=c1[nH]c2cc(-c3cc(Cl)cc(Cl)c3)ccc2c(=O)n1-c1cncc2ccccc12 [Example 53] |  |  | 4.33 | 33.2 |  |
| COc1cc(-c2cc3c(s2)c(=O)n(-c2cncc(F)c2C)c(=O)n3CCC#N)c(Cl)cc1F (single isomer, unassigned) [Example 1026, 3-[6-(2-chloro-4-fluoro-5-methoxy-phenyl)-3-(5-fluoro-4-methyl-3-pyridyl)-2,4-dioxo-thieno[3,2-d]pyrimidin-1-yl]propanenitrile] |  | 0.00308 |  |  | 0.00544 |
| CCn1ncc2cncc(-n3c(=O)c4sc(-c5cc(OC)c(F)cc5Cl)cc4n(CCC#N)c3=O)c21 [Example 910] |  | 0.00434 | 0.00435 |  |  |
| Cc1c(-c2cccc(Cl)c2-c2ccc3c(=O)n(-c4cncc5ccccc45)c(=O)[nH]c3c2)cnn1C [Example 243] |  |  | 0.0122 | 0.0111 |  |

Reference: patent publication US20240116946A1 (Gilead Sciences, Inc., priority 2022, published 2024)
